# Measured values: patent US7825256B2, “Inducible nitric oxide synthase dimerization inhibitors” (Kalypsys, Inc., priority 2004, dated 2010)
# Counter-ions that a name gives are not always drawn.
# Target: T1, hiNOS (Homo sapiens, UniProt P35228)
# T1 construct: expressed in transfected cells; host or cells: HEK293
# Test: DAN assay, hiNOS expressed in transiently transfected HEK293 cells
# Type: cell-based
# Conditions: HEK293 cells transiently transfected with hiNOS
# Text: The source of nitric oxide synthase (NOS) enzyme can be generated in several ways including induction of endogenous iNOS using cytokines and/or lipopolysaccharide (LPS) in various cell types known in the art. Alternatively, the gene encoding the enzyme can be cloned and the enzyme can be generated in cells via heterologous expression from a transient or stable expression plasmid with suitable features for protein expression as are known in the art. Enzymatic activity (nitric oxide production) is calcium independent for iNOS, while the constitutive NOS isoforms, nNOS and eNOS, become active with the addition of various cofactors added to cellular media or extract as are well known in the art. Enzymes specified in Table 1 were expressed in HEK293 cells transiently transfected with the indicated NOS isoform.
# A major metabolic pathway for nitric oxide is to nitrate and nitrite, which are stable metabolites within tissue culture, tissue, plasma, and urine (S Moncada, A Higgs, N Eng J Med 329, 2002 (1993)).
# The level of nitrate or nitrite in the specimen can be quantified by any method known in the art which provides adequate sensitivity and reproducibility. A variety of protocols have also been described for detecting and quantifying nitrite and nitrate levels in biological fluids by ion chromatography (e.g., S A Everett et al., J. Chromatogr. 706, 437 (1995); J M Monaghan et al., J. Chromatogr. 770, 143 (1997)), high-performance liquid chromatography (e.g., M Kelm et al., Cardiovasc. Res. 41, 765 (1999)), and capillary electrophoresis (M A Friedberg et al., J. Chromatogr. 781, 491 (1997)). For example, 2,3-diaminonaphthalene reacts with the nitrosonium cation that forms spontaneously from NO to form the fluorescent product […]. Using 2,3-diaminonaphthalene (“DAN”), researchers have developed a rapid, quantitative fluorometric assay that can detect from 10 nM to 10 μM nitrite and is compatible with a multi-well microplate format. […] DAN reacts with nitrite ion and gives fluorescent […] (M C Carré et al., Analysis 27, 835-838 (1999)). Table 1 provides the test results of various compounds of the subject invention using the DAN assay.
# A specimen can be processed prior to determination of nitrate or nitrite as required by the quantification method, or in order to improve the results, or for the convenience of the investigator. For example, processing can involve centrifuging, filtering, or homogenizing the sample. If the sample is whole blood, the blood can be centrifuged to remove cells and the nitrate or nitrite assay performed on the plasma or serum fraction. If the sample is tissue, the tissue can be dispersed or homogenized by any method known in the art prior to determination of nitrate or nitrite. It may be preferable to remove cells and other debris by centrifugation or another method and to determine the nitrate or nitrite level using only the fluid portion of the sample, or the extracellular fluid fraction of the sample. The sample can also be preserved for later determination, for example by freezing of urine or plasma samples. When appropriate, additives may be introduced into the specimen to preserve or improve its characteristics for use in the nitrate or nitrite assay.
# The “level” of nitrate, nitrite, or other NO-related product usually refers to the concentration (in moles per liter, micromoles per liter, or other suitable units) of nitrate or nitrite in the specimen, or in the fluid portion of the specimen. However, other units of measure can also be used to express the level of nitrate or nitrite. For example, an absolute amount (in micrograms, milligrams, nanomoles, moles, or other suitable units) can be used, particularly if the amount refers back to a constant amount (e.g., grams, kilograms, milliliters, liters, or other suitable units) of the specimens under consideration. A number of commercially available kits can be used.
row,SMILES,EC50 [nM]
1,"Cc1cc(C2CCC(=O)N2CCNCc2ccc3c(c2)OCO3)nc(-n2ccnc2)n1 (stereo not drawn) [Example 138, 1-{2-[(Benzo[1,3]dioxol-5-ylmethyl)-amino]-ethyl}-5-(2-imidazol-1-yl-6-methyl-pyrimidin-4-yl)-pyrrolidin-2-one hydrochloride]",< 1000
2,"CN(C)c1ccc(CN(CCCNCc2ccc3c(c2)OCO3)c2nc(-n3ccnc3)ns2)cc1 [Example 105, N-Benzo[1,3]dioxol-5-ylmethyl-N′-(4-dimethylamino-benzyl)-N′-(3-imidazol-1-yl-[1,2,4]thiadiazol-5-yl)-propane-1,3-diamine]",< 1000
3,"Cc1cc(C(C)(C)CCCNCc2ccc3c(c2)OCO3)nc(-n2ccnc2)n1 [Example 76, 4-(2-(1H-Imidazol-1-yl)-6-methylpyrimidin-4-yl)-N-(benzo[d][1,3]dioxol-5-ylmethyl)-4-methylpentan-1-amine]",< 1000
4,"CN(CCCN(C)c1nc(-n2ccnc2)ns1)CCc1ccc2c(c1)OCCO2 [Example 86, N-[2-(2,3-Dihydro-benzo[1,4]dioxin-6-yl)-ethyl]-N′-(3-imidazol-1-yl-[1,2,4]thiadiazol-5-yl)-N,N′-dimethyl-propane-1,3-diamine]",< 1000
5,"COc1ccc(CNCCCN(C)c2nc(-n3ccnc3)ns2)c(OC)c1 [Example 17, N′-(2,4-Dimethoxy-benzyl)-N-(3-imidazol-1-yl-[1,2,4]thiadiazol-5-yl)-N-methyl-propane-1,3-diamine]",< 1000
6,"Cc1cc(C2CCCN2CCNCc2ccc3c(c2)OCCO3)nc(-n2ccnc2)n1 (stereo not drawn) [Example 92, (2,3-Dihydro-benzo[1,4]dioxin-6-ylmethyl)-{2-[2-(2-imidazol-1-yl-6-methyl-pyrimidin-4-yl)-pyrrolidin-1-yl]-ethyl}-amine]",< 1000
7,"NCCCN(Cc1nccs1)c1nc(-n2ccnc2)ns1 [Example 52, N′-(3-Imidazol-1-yl-[1,2,4]thiadiazol-5-yl)-N′-thiazol-2-ylmethyl-propane-1,3-diamine]",< 1000
8,"Cc1cc(CNC(=O)C2CCCN2Cc2ccc(Cl)cc2)nc(-n2ccnc2)n1 (stereo not drawn) [Example 113, 1-(4-Chloro-benzyl)-pyrrolidine-2-carboxylic acid (2-imidazol-1-yl-6-methyl-pyrimidin-4-ylmethyl)-amide]",< 50000
9,"Cc1cc(CNC(=O)C2CCCN2Cc2ccccn2)nc(-n2ccnc2)n1 (stereo not drawn) [Example 109, 1-Pyridin-2-ylmethyl-pyrrolidine-2-carboxylic acid (2-imidazol-1-yl-6-methyl-pyrimidin-4-ylmethyl)-amide]",> 50000
10,"Cc1cc(CN(CC(N)=O)C(=O)NCCc2ccc3c(c2)OCO3)nc(-n2ccnc2)n1 [Example 70, (2-[3-(2-Benzo[1,3]dioxol-5-yl-ethyl)-1-(2-imidazol-1-yl-6-methyl-pyrimidin-4-ylmethyl)-ureido]-acetamide)]",< 1000
11,"CN(CC(=O)NCCc1ccc2c(c1)OCO2)c1nc(-n2ccnc2)ns1 [Example 30, N-(2-Benzo[1,3]dioxol-5-yl-ethyl)-2-[(3-imidazol-1-yl-[1,2,4]thiadiamol-5-yl)-methyl-amino]-acetamide]",< 1000
12,"CN(CCCNCc1cccs1)c1nc(-n2ccnc2)ns1 [Example 20, N-(3-Imidazol-1-yl-[1,2,4]thiadiazol-5-yl)-N-methyl-N′-thiophen-2-ylmethyl-propane-1,3-diamine]",> 50000
13,"CCOC(=O)c1csc(C2CCN(CCNCc3ccc4c(c3)OCO4)C2c2cc(C)nc(-n3ccnc3)n2)n1 (stereo not drawn) [Example 141, 2-[1-{2-[(Benzo[1,3]dioxol-5-ylmethyl)-amino]-ethyl}-2-(2-imidazol-1-yl-6-methyl-pyrimidin-4-yl)-pyrrolidin-3-yl]-thiazole-4-carboxylic acid ethyl ester]",< 1000

# More lines, now with the values ahead:
row,EC50 [nM],SMILES
1,< 1000,"c1cn(-c2nsc(N(CCCNCc3ccc4c(c3)OCO4)Cc3ccc4occc4c3)n2)cn1 [Example 101, N′-Benzo[1,3]dioxol-5-ylmethyl-N-benzofuran-5-ylmethyl-N-(3-imidazol-1-yl-[1,2,4]thiadiazol-5-yl)-propane-1,3-diamine]"
2,< 1000,"C[C@H](Nc1nc(-n2ccnc2)ns1)C(=O)NCCc1ccc2c(c1)OCO2 [Example 23, (S)—N-(2-Benzo[1,3]dioxol-5-yl-ethyl)-2-(3-imidazol-1-yl-[1,2,4]thiadiazol-5-ylamino)-propionamide]"
3,< 1000,"NC(=O)CN(CCCNCc1ccc2c(c1)OCO2)c1nc(-n2ccnc2)ns1 [Example 54, 2-[{3-[(Benzo[1,3]dioxol-5-ylmethyl)-amino]-propyl}-(3-imidazol-1-yl-[1,2,4]thiadiazol-5-yl)-amino]-acetamide]"
4,< 1000,"CCCN(CCCNCc1ccc2c(c1)OCO2)c1nc(-n2ccnc2)ns1 [Example 31, N′-Benzo[1,3]dioxol-5-ylmethyl-N-(3-imidazol-1-yl-[1,2,4]thiadiazol-5-yl)-N-propyl-propane-1,3-diamine]"
5,< 1000,"Cc1cc(C(C)(C)CCC(=O)NCc2ccc3c(c2)OCO3)nc(-n2ccnc2)n1 [Example 75, 4-(2-(1H-Imidazol-1-yl)-6-methylpyrimidin-4-yl)-N-(benzo[d][1,3]dioxol-5-ylmethyl)-4-methylpentanamide]"
6,< 1000,"CNC(=O)C(NC(=O)CNCc1ccc2c(c1)OCO2)c1cc(C)nc(-n2ccnc2)n1 (stereo not drawn) [Example 42, 2-{2-[(Benzo[1,3]dioxol-5-ylmethyl)-amino]-acetylamino}-2-(2-imidazol-1-yl-6-methyl-pyrimidin-4-yl)-N-methyl-acetamide]"
7,< 1000,"Cc1cc(C2C(C(=O)NCCc3ccc4c(c3)OCCO4)CCN2C)nc(-n2ccnc2)n1 (stereo not drawn) [Example 124, 2-(2-Imidazol-1-yl-6-methyl-pyrimidin-4-yl)-1-methyl-pyrrolidine-3-carboxylic acid [2-(2,3-dihydro-benzo[1,4]dioxin-6-yl)-ethyl]-amide]"
8,< 1000,"Oc1ccc(CN(CCCNCc2ccc3c(c2)OCO3)c2nc(-n3ccnc3)ns2)cc1 [Example 103, 4-{[{3-[(Benzo[1,3]dioxol-5-ylmethyl)-amino]-propyl}-(3-imidazol-1-yl-[1,2,4]thiadiazol-5-yl)-amino]-methyl}-phenol]"
9,< 1000,"Cc1cc(C(C)NCCN(C)Cc2ccc3c(c2)OCO3)nc(-n2ccnc2)n1 (single isomer, unassigned) [Example 131, N-Benzo[1,3]dioxol-5-ylmethyl-N-[1-(2-imidazol-1-yl-6-methyl-pyrimidin-4-yl)-ethyl]-N-methyl-ethane-1,2-diamine]"
10,> 50000,"CN(CCCNCc1ccc(F)c(F)c1)c1nc(-n2ccnc2)ns1 [Example 9, N′-(3,4-Difluro-benzyl)-N-(3-imidazol-1-yl-[1,2,4]thiadiazol-5-yl)-N-methyl-propane-1,3-diamine]"
11,> 50000,"COc1ccc(CNCCCN(C)c2nc(-n3ccnc3)ns2)cc1OC [Example 22, N′-(3,4-Dimethoxy-benzyl)-N-(3-imidazol-1-yl-[1,2,4]thiadiazol-5-yl)-N-methyl-propane-1,3-diamine]"
12,< 1000,"O=C(NCCc1ccc2c(c1)OCO2)[C@H]1CCCCN1c1nc(-n2ccnc2)ns1 [Example 26, (R)-1-(3-Imidazol-1-yl-[1,2,4]thiadiazol-5-yl)-piperidine-2-carboxylic acid (2-benzo[1,3]dioxol-5-yl-ethyl)-amide]"
13,< 1000,"CN(CCCNCc1ccc2c(c1)OCCO2)c1nc(-n2ccnc2)ns1 [Example 16, N′-(2,3-Dihydro-benzo[1,4]dioxin-6-ylmethyl)-N-(3-imidazol-1-yl-[1,2,4]thiadiazol-5-yl)-N-methyl-propane-1,3-diamine]"
14,> 50000,"Cc1cc(CNC(=O)C2CCCN2Cc2ccc(OC(C)C)cc2)nc(-n2ccnc2)n1 (stereo not drawn) [Example 115, 1-(4-Isopropoxy-benzyl)-pyrrolidine-2-carboxylic acid (2-imidazol-1-yl-6-methyl-pyrimidin-4-ylmethyl)-amide]"
